# Substitutions are numbered along the chain they refer to. Read-outs that look alike come from different tables or passages of the source. Non-standard residues stand in square brackets, D forms with d. Residues, ends and D or L forms follow the SMILES beside them. *: point of attachment. 5FAM = O=C1OC2(c3ccc(O)cc3Oc3cc(O)ccc32)c2ccc(C(=O)*)cc21; Lys(Me3) = C[N+](C)(C)CCCC[C@H](N)C(=O)O
# Tests used:
# [1] = system: H3K23me3 antibody; assay: H3K23me3 antibody profiling on histone peptide microarray; details: scale from zero (no binding) to one (highest binding), Supplementary Fig. 5b-c
# Procedure: Peptide arrays were handled with care and protected from light. All solutions were filtered before putting on the array. Assays were performed with a modified two-chamber simplex gasket (Intuitive Bioscience). After tightening the gasket onto the slide surface, the peptide array was blocked with blocking solution (1 × PBS, 0.05% Tween-20 pH 7.4, 1% BSA) at 4 °C overnight, to reduce nonspecific binding. (1) Reader binding: 10–50 nM purified recombinant HT-KDM4 DTDs were first reacted with excessive HaloTag ligand-biotin (Promega) in blocking solution on ice for 15 min and incubated on peptide array under mild rocking at 4 °C, 1 h. The slide was washed with PBS with 0.05% Tween (PBST) three times and incubated with 1:2,000 streptavidin-conjugated Alexa-Fluor647 (Invitrogen) in blocking solution at room temperature for 1 h. (2) Antibody binding: after blocking, 1:2,500–1:100 dilution H3K23me3 antibody in blocking solution were incubated with peptide microarray under mild rocking at 4 °C, 1 h. The slide was washed with PBST three times and incubated with 1:1,000 anti-rabbit IgG Alexa 647 (Cell Signaling) in blocking solution at room temperature for 1 h. […] Signal intensities were quantified by GenePix Pro 6.1 software (Molecular Devices). […] For each peptide species, an average was calculated from three replicate spots. […]
# [2] = system: KDM4B full-length protein; assay: MS-based demethylation assay, full-length KDM4B; format: biochemical, human; details: 0.2 μM enzyme, 5–10 μM peptide, pH 7.5, 25 °C, MS read-out; single peptide substrates; Fig. 6a,b
# Procedure: In a typical demethylase reaction, the assay mixture containing 50 mM Tris pH 7.5, 50 mM NaCl, 50 μM (NH4)2Fe(SO4)2, 0.5 mM ascorbic acid, 1 mM α-ketoglutarate and 0.2 μM full-length KDM4A–C (Active Motif) was mixed with 5–10 μM of trimethylated histone peptides (detailed sequence information in Supplementary Table 1). Each peptide concentration was quantified by measuring Abs280nm for peptides containing either tryptophan or tyrosine residue. After incubation of assay mixture at 25 °C for 10, 30 and 60 min time point, 10 μl of aliquot was transferred to a clean tube containing 5 μl of 5% formic acid to quench the reaction. Each quenched sample was treated with standard StageTip protocol using C18 extraction disk (Model 2215, Empore, 3 M) to remove excess salts and detergents in the reaction mixture. Each eluate from StageTip containing peptides was dried at a reduced pressure (vacuum centrifuge) and was re-suspended with 10 μl of 5% acetonitrile solution (0.1% formic acid). The 1 μl of the sample was injected at 0.7 μl min^−1 flow rate onto a Dionex Ultimate 3000 Nano LC system equipped with Atlantis dC18 NanoEase reverse-phase column (3 μm, 100 μm × 150 mm, Waters) and coupled to a hybrid quadrupole-orbitrap MS (Q-Exactive, Thermo Scientific). The peptide was eluted at 4–15 min retention time with a linear gradient of 2–35% acetonitrile (0.1% formic acid). All the solvents used for liquid chromatography MS were HPLC grade (Fisher). For each analysis, MS1 scan range of 300–1,100 m/z was used and data-dependent MS/MS was obtained to identify the site of demethylation. Each peptide peak and its area integration was performed on the XCalibur Qual Browser.
# [3] = target: T1, KDM4A DTD (human KDM4A double tudor domain, 895–1011aa) (Homo sapiens, UniProt O75164); assay: fluorescence polarization (FP) binding, KDM4A-DTD wild-type
# T1 construct: DNA encoding DTDs (KDM4A 895–1011aa, KDM4B 917–1031aa and KDM4C 877–991aa); (His)6-HaloTag (pFN29) or (His)6 (pET28b); made in house; host or cells: Escherichia coli BL21 (DE3)
# T1 sequence (O75164 895-1011): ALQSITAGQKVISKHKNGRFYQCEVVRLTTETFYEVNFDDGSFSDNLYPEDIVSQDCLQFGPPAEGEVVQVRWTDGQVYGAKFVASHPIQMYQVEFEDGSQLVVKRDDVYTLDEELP
# Source text: (§1) KDM4 protein sequences used in this study correspond to Uniprot ID: O75164 (human KDM4A, isoform 1), O94953 (human KDM4B, isoform1) and Q9H3R0 (human KDM4C, isoform1). Plasmid encoding KDM4A DTD was kindly provided by R-M Xu (Chinese Academy of Sciences). Complementary DNA encoding human KDM4B-DTD was synthesized (Integrated DNA Technologies). Plasmid containing cDNA of full-length KDM4C (clone ID: HsCD00341594) was obtained from Harvard Plasmid Repository. DNA encoding DTDs (KDM4A 895–1011aa, KDM4B 917–1031aa and KDM4C 877–991aa) were cloned into pFN29 (Promega) with N-terminal (His)6-HaloTag or pET28b with N-terminal (His)6 Tag using In-Fusion HD cloning kit (Clontech). Plasmids encoding Xenopus laevis core histones were a generous gift of K. Luger (University of Colorado-Boulder). Site-directed mutagenesis was performed with Q5 Site-Directed Mutagenesis Kit (New England Biolabs).
# (§2) Peptide sequences are given in Supplementary Table 1. […] A no-protein control with only peptide probe was included. Polarization at each concentration was measured as triplicates in 384-well polystyrene black microplates (Thermo Fisher Scientific 262260) by Biotek Synergy H4 multimode plate reader (light source: xenon flash, offset from top: 7 mm, sensitivity: 60%, excitation: 485/20 nm, emission: 528/20 nm, both parallel and perpendicular, normal read speed). Fraction bound (Fb) at each concentration was calculated based on the corresponding polarization values (P): Fbc=(Pc−Pmin)/(Pmax−Pmin), where Pmin is the polarization value of no-protein control and Pmax is the polarization value of the saturation value for that peptide. Dissociation constants (Kd) were derived by KaleidaGraph, Synergy Software (version 4.1.3) using the following equation: Fb=[protein]/([protein]+Kd).
# [4] = target: T2, KDM4A-DTD triple mutant N931D/D939R/D945R (DRR) (Homo sapiens, UniProt O75164, D939R/D945R/N931D); assay: FP binding, KDM4A-DTD DRR mutant; details: matrix Fig. 3c, values given in mM, pH 7.4, read-out: binding affinity (Kd), DRR mutant
# T2 construct: DNA encoding DTDs (KDM4A 895–1011aa, KDM4B 917–1031aa and KDM4C 877–991aa); (His)6-HaloTag (pFN29) or (His)6 (pET28b); made in house; host or cells: Escherichia coli BL21 (DE3)
# T2 sequence (O75164 895-1011 N931D/D939R/D945R): T1 sequence (O75164 895-1011) with N37D, D45R, D51R
# Source text: as §1, with “Plasmids encoding Xenopus laevis core histones were a generous gift of K. Luger (University of Colorado-Boulder). Site-directed mutagenesis was performed with Q5 Site-Directed Mutagenesis Kit (New England Biolabs).” left out
# (§3) Peptide sequences are given in Supplementary Table 1. […] Polarization at each concentration was measured as triplicates in 384-well polystyrene black microplates (Thermo Fisher Scientific 262260) by Biotek Synergy H4 multimode plate reader (light source: xenon flash, offset from top: 7 mm, sensitivity: 60%, excitation: 485/20 nm, emission: 528/20 nm, both parallel and perpendicular, normal read speed). Fraction bound (Fb) at each concentration was calculated based on the corresponding polarization values (P): Fbc=(Pc−Pmin)/(Pmax−Pmin), where Pmin is the polarization value of no-protein control and Pmax is the polarization value of the saturation value for that peptide. […]
# [5] = target: T3, KDM4B DTD (human KDM4B double tudor domain, 917–1031aa) (Homo sapiens, UniProt O94953); assay: fluorescence polarization (FP) binding, KDM4B-DTD wild-type; details: matrix Fig. 1d, pH 7.4, read-out: binding affinity (Kd), KDM4B DTD
# T3 construct: DNA encoding DTDs (KDM4A 895–1011aa, KDM4B 917–1031aa and KDM4C 877–991aa); (His)6-HaloTag (pFN29) or (His)6 (pET28b); made in house; host or cells: Escherichia coli BL21 (DE3)
# T3 sequence (O94953 917-1031): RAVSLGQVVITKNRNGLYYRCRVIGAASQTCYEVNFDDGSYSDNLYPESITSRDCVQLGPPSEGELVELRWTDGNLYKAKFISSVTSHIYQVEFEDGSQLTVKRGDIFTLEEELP
# Source text: as §1, §2
# [6] = target: T4, KDM4C DTD (human KDM4C double tudor domain, 877–991aa) (Homo sapiens, UniProt Q9H3R0); assay: fluorescence polarization (FP) binding, KDM4C-DTD wild-type; details: matrix Fig. 1d, pH 7.4, read-out: binding affinity (Kd), KDM4C DTD
# T4 construct: DNA encoding DTDs (KDM4A 895–1011aa, KDM4B 917–1031aa and KDM4C 877–991aa); (His)6-HaloTag (pFN29) or (His)6 (pET28b); made in house; host or cells: Escherichia coli BL21 (DE3)
# T4 sequence (Q9H3R0 877-991): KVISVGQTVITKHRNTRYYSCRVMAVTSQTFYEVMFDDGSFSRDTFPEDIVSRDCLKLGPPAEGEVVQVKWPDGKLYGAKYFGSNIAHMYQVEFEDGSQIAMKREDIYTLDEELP
# Source text: as §1, with “Plasmids encoding Xenopus laevis core histones were a generous gift of K. Luger (University of Colorado-Boulder). Site-directed mutagenesis was performed with Q5 Site-Directed Mutagenesis Kit (New England Biolabs).” left out
# as §3
# [7] = system: KDM4B-DTD; assay: biotinylated histone peptide pull-down, KDM4B-DTD; format: binding, human; details: compared with KDM4A and KDM4C DTDs
# [8] = Fig. 2e,g,i,j and Fig. 4g,i, pH 7.4, ± s.d. from three experimental replicates, read-out: binding affinity, KDM4A-DTD wild-type (WT)
# [9] = matrix Fig. 1d and Fig. 3c, pH 7.4, read-out: binding affinity (Kd), KDM4A DTD wild-type
molecule,measurement,setting,value
"H3K36me3: demethylation assay peptide, Tufts University Core Facility",relative signal intensity with H3K23me3 antibody,[1],less than 0.1
same,demethylation by full-length KDM4B,[2],consistent H3K36me3 demethylation
CC(C)C[C@H](NC(=O)[C@H](CCC(N)=O)NC(=O)[C@H](CCCCN)NC(=O)[C@H](CCCNC(=N)N)NC(=O)c1ccc2c(c1)C(=O)OC21c2ccc(O)cc2Oc2cc(O)ccc21)C(=O)N[C@@H](C)C(=O)N[C@H](C(=O)N[C@@H](CCCC[N+](C)(C)C)C(=O)N[C@@H](C)C(=O)N[C@@H](C)C(=O)N[C@@H](CCCNC(=N)N)C(=O)N[C@@H](CCCCN)C(=O)N[C@@H](CO)C(=O)N[C@@H](C)C(=O)N1CCC[C@H]1C(=O)N[C@@H](C)C(=O)N[C@H](C(=O)O)[C@@H](C)O)[C@@H](C)OP(=O)(O)O [H3T22phK23me3],Kd,[3]; [8],83.7 ± 4.1 µM
CC(C)C[C@H](NC(=O)[C@H](CCC(N)=O)NC(=O)[C@H](CCCCN)NC(=O)[C@H](CCCNC(=N)N)NC(=O)c1ccc2c(c1)C(=O)OC21c2ccc(O)cc2Oc2cc(O)ccc21)C(=O)N[C@@H](C)C(=O)N[C@H](C(=O)N[C@@H](CCCCN)C(=O)N[C@@H](C)C(=O)N[C@@H](C)C(=O)N[C@@H](CCCNC(=N)N)C(=O)N[C@@H](CCCC[N+](C)(C)C)C(=O)N[C@@H](CO)C(=O)N[C@@H](C)C(=O)N1CCC[C@H]1C(=O)N[C@@H](C)C(=O)N[C@H](C(=O)O)[C@@H](C)O)[C@@H](C)O [H3K27me3],Kd,[4],0.57 mM
same,Kd,[3]; [9],122 µM
same,Kd,[5],140 µM
same,Kd,[6],103 µM
CC(C)C[C@H](NC(=O)[C@H](CCC(N)=O)NC(=O)[C@H](CCCCN)NC(=O)[C@H](CCCNC(=N)N)NC(=O)[C@@H]1CCCN1C(=O)[C@H](C)NC(=O)[C@H](CCCC[N+](C)(C)C)NC(=O)CNC(=O)CNC(=O)[C@@H](NC(=O)[C@H](CO)NC(=O)[C@H](CCCCN)NC(=O)[C@H](CCCNC(=N)N)NC(=O)[C@H](C)NC(=O)c1ccc2c(c1)C(=O)OC21c2ccc(O)cc2Oc2cc(O)ccc21)[C@@H](C)O)C(=O)N[C@@H](C)C(=O)N[C@H](C(=O)N[C@@H](CCCCN)C(=O)O)[C@@H](C)O [H3K14me3] (5FAM-ARKSTGG[Lys(Me3)]APRKQLATK-OH),Kd,[3]; [9],109 µM
CC(C)C[C@H](NC(=O)[C@H](CCC(N)=O)NC(=O)[C@H](CCCCN)NC(=O)[C@H](CCCNC(=N)N)NC(=O)c1ccc2c(c1)C(=O)OC21c2ccc(O)cc2Oc2cc(O)ccc21)C(=O)N[C@@H](C)C(=O)N[C@H](C(=O)N[C@@H](CCCCN(C)C)C(=O)N[C@@H](C)C(=O)N[C@@H](C)C(=O)N[C@@H](CCCNC(=N)N)C(=O)N[C@@H](CCCCN)C(=O)N[C@@H](CO)C(=O)N[C@@H](C)C(=O)N1CCC[C@H]1C(=O)N[C@@H](C)C(=O)N[C@H](C(=O)O)[C@@H](C)O)[C@@H](C)O [H3K23me2],Kd,"[3]; pH 7.4, read-out: Kd, KDM4A-DTD wild-type",9.06 µM
CNCCCC[C@H](NC(=O)[C@@H](NC(=O)[C@H](C)NC(=O)[C@H](CC(C)C)NC(=O)[C@H](CCC(N)=O)NC(=O)[C@H](CCCCN)NC(=O)[C@H](CCCNC(=N)N)NC(=O)c1ccc2c(c1)C(=O)OC21c2ccc(O)cc2Oc2cc(O)ccc21)[C@@H](C)O)C(=O)N[C@@H](C)C(=O)N[C@@H](C)C(=O)N[C@@H](CCCNC(=N)N)C(=O)N[C@@H](CCCCN)C(=O)N[C@@H](CO)C(=O)N[C@@H](C)C(=O)N1CCC[C@H]1C(=O)N[C@@H](C)C(=O)N[C@H](C(=O)O)[C@@H](C)O [H3K23me1],Kd,[3]; [8],98.6 ± 5.4 µM
CC(C)C[C@H](NC(=O)[C@H](CCC(N)=O)NC(=O)[C@H](CCCCN)NC(=O)[C@H](CCCNC(=N)N)NC(=O)c1ccc2c(c1)C(=O)OC21c2ccc(O)cc2Oc2cc(O)ccc21)C(=O)N[C@@H](C)C(=O)N[C@H](C(=O)N[C@@H](CCCC[N+](C)(C)C)C(=O)N[C@@H](C)C(=O)N[C@@H](C)C(=O)N[C@@H](C)C(=O)N[C@@H](CCCCN)C(=O)N[C@@H](CO)C(=O)N[C@@H](C)C(=O)N1CCC[C@H]1C(=O)N[C@@H](C)C(=O)N[C@H](C(=O)O)[C@@H](C)O)[C@@H](C)O [H3K23me3R26A] (5FAM-RKQLAT[Lys(Me3)]AAAKSAPAT-OH),Kd,[3]; [8],32.3 ± 1.8 µM
"RKQLATKAARK(Me3)SAPATGGW [H3K27me3 peptide, demethylation assay peptide, Peptide 2.0]",demethylation by full-length KDM4B,[2],did not detect significant demethylation
"ARTK(Me3)QTARKSTE(PEGbiotin)W [H3K4me3 (biotinylated), H3K4me3 peptide for pull-down, PEGbiotin, in-house]",pull-down binding of KDM4B-DTD,[7],Decreased
"RKQLATK(Me3)AARK(Me3)SAPATGGW [H3K23me3K27me3, demethylation assay peptide, Peptide 2.0]",demethylation by full-length KDM4B,[2],lack of measurable demethylation

# Reference: article PMC5114558, “Reader domain specificity and lysine demethylase-4 family function” (Nature Communications, 2016)
